Source: patent US10206898B2, “Compositions and methods for treating or preventing obesity in a subject in need thereof” (Amarin Pharmaceuticals Ireland Limited, priority 2013, dated 2019)

Tested on: patients with fasting triglyceride levels ≥200 mg/dl and <500 mg/dl despite statin therapy
Test: 12-week placebo-controlled, randomized, double-blind study: lipoprotein particle concentrations
Assay type: in vivo, human
Description: A multi-center, placebo-controlled, randomized, double-blind, 12-week study was performed to evaluate the efficacy and safety of >96% E-EPA in patients with fasting triglyceride levels ≥200 mg/dl and <500 mg/dl despite statin therapy (the mean of two qualifying entry values needed to be ≥185 mg/dl and at least one of the values needed to be ≥200 mg/dl). The primary objective of the study was to determine the efficacy of >96% E-EPA 2 g daily and 4 g daily, compared to placebo, in lowering fasting TG levels in patients with high risk for cardiovascular disease and with fasting TG levels ≥200 mg/dl and <500 mg/dl, despite treatment to LDL-C goal on statin therapy. The population for this study was men and women >18 years of age with a body mass index ≤45 kg/m^2 with fasting TG levels greater than or equal to 200 mg/dl and less than 500 mg/dl and on a stable does of statin therapy (with or without ezetimibe). The statin was atorvostatin, rosuvastatin or simvastatin. The dose of statin must have been stable for ≥4 weeks prior to the LDL-C/TG baseline qualifying measurement for randomization. The statin dose was optimized such that the patients are at their LDL-C goal at the LDL-C/TG baseline qualifying measurements. The same statin at the same dose was continued until the study ended. Approximately 702 patients were randomized at approximately 80 centers in the U.S. The study was a 18- to 20-week, Phase 3, multi-center study consisting of 2 study periods: (1) A 6- to 8-week screening period that included a diet and lifestyle stabilization, a non-statin lipid-altering treatment washout, and an LDL-C and TG qualifying period and (2) A 12-week, double-blind, randomized, placebo-controlled treatment period. After confirmation of qualifying fasting LDL-C and TG values, eligible patients entered a 12-week, randomized, double-blind treatment period. At Visit 4 (Week 0), patients were randomly assigned to 1 of the following treatment groups: • >96% E-EPA 2 g daily, • >96% E-EPA 4 g daily, or • Placebo. Eligible patients were randomly assigned at Visit 4 (Week 0) to receive orally >96% E-EPA 2 g daily, >96% E-EPA 4 g daily, or placebo. >96% E-EPA was provided in 1 g liquid-filled, oblong, gelatin capsules. The matching placebo capsule was filled with light liquid paraffin and contained 0 g of >96% E-EPA. >96% E-EPA capsules were to be taken with food (i.e. with or at the end of a meal). […]

Structure (SMILES): CC/C=C\C/C=C\C/C=C\C/C=C\C/C=C\CCCC(=O)OCC [Ethyl Eicosapentaenoate, ethyl eicosapentaenoate]
- reduction of median concentrations of total HDL over baseline when adjusted for placebo (4 g per day, stated as a reduction (P<0.0001)): 7.4%
- reduction of median concentrations of total LDL over baseline when adjusted for placebo (4 g per day, stated as a reduction (P<0.01)): 7.7%
- HDL % Change (placebo-adjusted, relative to baseline) (4 g/day, 12 weeks, statin-treated patients, median total HDL particle concentration): −7.4%
- LDL % Change (placebo-adjusted, relative to baseline) (4 g/day, 12 weeks, statin-treated patients, median total LDL particle concentration): −7.7%
